The results in this text go back to patent publication EP0195116A2, “Compound having antibacterial and antimycotic activities, preparation thereof and pharmaceutical compositions containing it” (ISTITUTO FARMACO BIOLOGICO RIPARI GERO S.r.l., priority 1985, dated 1986).

Data set [1] concerns Pseudomonas aeruginosa OMI 1. The data set is described as follows: In vitro antibacterial activity (M.I.C.), scalar dilutions on agar plates. The conditions noted are these: 18 hours incubation at 37°C. The data set is classed as cell-based. The method, then: (§1) The method was that of scalar dilutions of the test products on agar plates, in a 1:2 dilution ratio. Bacterial suspensions grown overnight in Brain Heart Infusion DIFCO, were diluted 1/100 in new culture medium and inoculated by means of a multiinoculation device.
(§2) M.I.C. values were determined by visual observation of bacterial growth, after 18 hours incubation, at 37°C.

The test system of another data set is Escherichia coli OMI 17. The description is as above. The format is cell-based. The conditions noted are these: 18 hours incubation at 37°C. The procedure: as §1, §2
A further data set relates to Staphylococcus aureus 38. The description is as above. The format is cell-based. The procedure:
as §1, §2

Data set [2] concerns Streptococcus faecalis OMI 2. Described as above. The format is cell-based. The conditions noted are these: 18 hours incubation at 37°C. The procedure:
as §1, §2

Data set [3] relates to Streptococcus faecalis OMI 1. Described as above. The format is cell-based. The following applies: 18 hours incubation at 37°C. The procedure: as §1, §2
The next data set relates to Proteus vulgaris OMI 4. The data set is described as above. The data set is classed as cell-based. The conditions noted are these: 18 hours incubation at 37°C. The procedure:
as §1, §2

The subject of data set [4] is Streptococcus pyogenes A/1. The data set is described as above. The data set is classed as cell-based. The method, then:
as §1, §2

A further data set deals with Sarcina lutea ATCC 9341. Described as above. The format is cell-based. The following applies: 18 hours incubation at 37°C. The procedure:
as §1, §2

The test system of a further data set is Staphylococcus aureus 35. The description is as above. The data set is classed as cell-based. The method, then:
as §1, §2

The test system of the next data set is Streptococcus pyogenes C. The description is as above. The data set is classed as cell-based. The procedure: as §1, §2
The test system of data set [5] is Klebsiella pneumoniae ATCC 1003. Described as above. The data set is classed as cell-based. The procedure:
as §1, §2

Data set [6] has as its system Staphylococcus aureus ATCC 9144. The data set is described as above. The format is cell-based. The method, then: as §1, §2
The subject of a further data set is Escherichia coli OMI 16. Described as above. The format is cell-based. The conditions noted are these: 18 hours incubation at 37°C. The method, then: as §1, §2
The next data set relates to Candida albicans 1. The data set is described as follows: In vitro antimycotic activity (M.I.C.), scalar dilutions in liquid medium on Microtiter plates. The data set is classed as cell-based. The method, then: (§3) The method is that of scalar dilutions of the test compounds on Microtiter plates, in a 1:2 dilution ratio. Suspensions (titre: 10^4) of fungal sporae and Candida cells, grown on Sabouraud, and Dextrose Agar, were collected at the moment of use in the same medium used for the test and inoculated by means of a multi inoculation Microtiter device.
(§4) M.I.C. values were determined by means of visual observation of fungal growth respectively after 24 hours (Candida albicans) and 48 and 72 hours (dermatophytes) incubation at 24°C.

Data set [7] concerns Epidermophyton floccosum 1. Described as above. The format is cell-based. The procedure:
as §3, §4

In a further data set the test system is Microsporum canis 1. Described as above. The format is cell-based. The procedure:
as §3, §4

For the next data set, the system named is Microsporum canis 2. Described as above. The data set is classed as cell-based. The conditions noted are these: hospital isolate, 48 and 72 hours incubation at 24°C. The procedure:
as §3, §4

A further data set concerns Aspergillus fumigatus 2. The data set is described as above. The format is cell-based. The procedure: as §3, §4
The test system of a further data set is Candida albicans 2. Described as above. The format is cell-based. The method, then:
as §3, §4

A further data set deals with Candida albicans 3. Described as above. The format is cell-based. The procedure:
as §3, §4

The subject of data set [8] is Tricophyton mentagrophites 1. The data set is described as above. The data set is classed as cell-based. The method, then:
as §3, §4

Another data set concerns Aspergillus fumigatus 1. The data set is described as above. The data set is classed as cell-based. The method, then:
as §3, §4

The nature of data set [9]: Pharmacokinetics in the rat by oral administration (serum and urinary concentrations by agar-well diffusion bioassay). (A growth-free zone around the sample is the usual read-out of agar diffusion tests.)

In brackets after ≈: the same amount, converted by molar mass.

With “1-{[2-(2,4-dichlorophenyl)-2-(2,4-dichlorophenyl)methoxy]ethyl}-1-pivaloyloxymethyl-lH-imidazolium chloride [RG 024]”, the M.I.C. in data set [1] (Isosensitest agar) is more than 200 µg/mL; in the data set with Escherichia coli OMI 17 (Isosensitest agar) it was 6.25 µg/mL; with Staphylococcus aureus 38 (Staphylococcus aureus 38, Isosensitest agar, 18 hours incubation at 37°C), 0.19 µg/mL; in data set [2] (Isosensitest agar), 6.25 µg/mL; in data set [3] (Isosensitest agar), 6.25 µg/mL; in the data set with Proteus vulgaris OMI 4 (Isosensitest agar) it was 50 µg/mL. In addition, the M.I.C. in data set [4] (Streptococcus pyogenes A/1, Isosensitest agar, 18 hours incubation at 37°C) stood at 0.19 µg/mL; in the data set with Sarcina lutea ATCC 9341 (Isosensitest agar) it was 0.19 µg/mL; in the data set with Staphylococcus aureus 35 (Staphylococcus aureus 35, Isosensitest agar, 18 hours incubation at 37°C) it was 0.39 µg/mL; in the data set with Streptococcus pyogenes C (Streptococcus pyogenes C, Isosensitest agar, 18 hours incubation at 37°C), 0.39 µg/mL; in data set [5] (Klebsiella pneumoniae ATCC 1003, Isosensitest agar, 18 hours incubation at 37°C), 12.5 µg/mL; in data set [6] (Staphylococcus aureus ATCC 9144, Isosensitest agar, 18 hours incubation at 37°C), 0.19 µg/mL. Also, the M.I.C. came to 6.25 µg/mL with Escherichia coli OMI 16 (Isosensitest agar); 1.56 µg/mL in the data set on Candida albicans 1 (Candida albicans 1, hospital isolate, liquid medium, 24 hours incubation at 24°C); 1.56 µg/mL in data set [7] (Epidermophyton floccosum 1, hospital isolate, liquid medium, 48 and 72 hours incubation at 24°C); 12.5 µg/mL in the data set with Microsporum canis 1 (Microsporum canis 1, hospital isolate, liquid medium, 48 and 72 hours incubation at 24°C); 6.12 µg/mL in the data set on Microsporum canis 2; 3.12 µg/mL with Aspergillus fumigatus 2 (Aspergillus fumigatus 2, hospital isolate, liquid medium, incubation at 24°C). Moreover, the M.I.C. was 0.39 µg/mL in the data set on Candida albicans 2 (Candida albicans 2, hospital isolate, liquid medium, 24 hours incubation at 24°C); 0.78 µg/mL with Candida albicans 3 (Candida albicans 3, hospital isolate, liquid medium, 24 hours incubation at 24°C); 0.78 µg/mL in [8] (Tricophyton mentagrophites 1, hospital isolate, liquid medium, 48 and 72 hours incubation at 24°C); 6.25 µg/mL in the data set on Aspergillus fumigatus 1 (Aspergillus fumigatus 1, hospital isolate, liquid medium, incubation at 24°C).
The term MIC denotes the smallest concentration in the dilution series that meets the test's criterion for growth inhibition. Lower therefore signals a more susceptible organism. As for `Clc1ccc(COC(Cn2ccnc2)c2ccc(Cl)cc2Cl)c(Cl)c1` (stereo not drawn) [miconazole], the minimum inhibitory concentration (MIC) in [1] (OMI1, Isosensitest agar) is more than 200 µg/mL; against Escherichia coli OMI 17 (OMI17, Isosensitest agar), 12.5 µg/mL (≈ 30 µM); against Staphylococcus aureus 38 (Staphylococcus aureus, 38, 18 h), 0.39 µg/mL (≈ 0.937 µM); in data set [2] (Enterococcus faecalis, OMI2, Isosensitest agar) it was 6.25 µg/mL (≈ 15 µM); in data set [3] (Enterococcus faecalis, OMI1, Isosensitest agar), 12.5 µg/mL (≈ 30 µM); in the data set on Proteus vulgaris OMI 4 (OMI4, Isosensitest agar), 100 µg/mL (≈ 240 µM). Also, the minimum inhibitory concentration (MIC) in [4] (Streptococcus pyogenes, 18 h) amounted to 0.39 µg/mL (≈ 0.937 µM); against Sarcina lutea ATCC 9341 (Micrococcus luteus, ATCC9341, Isosensitest agar) it was 0.19 µg/mL (≈ 0.457 µM); against Staphylococcus aureus 35 (Staphylococcus aureus, 35, 18 h), 6.25 µg/mL (≈ 15 µM); against Streptococcus pyogenes C (Streptococcus pyogenes, 18 h), 0.39 µg/mL (≈ 0.937 µM); in [5] (Klebsiella pneumoniae, ATCC1003, 18 h) it was 25 µg/mL (≈ 60.1 µM); in [6] (Staphylococcus aureus, ATCC9144, 18 h), 0.39 µg/mL (≈ 0.937 µM). For the same compound, the minimum inhibitory concentration (MIC) in the data set on Escherichia coli OMI 16 (OMI16, Isosensitest agar) was 25 µg/mL (≈ 60.1 µM); in the data set with Candida albicans 1 (Candida albicans, 1, 24 h), 3.12 µg/mL (≈ 7.5 µM); in [7] (Epidermophyton floccosum, 1) it was 1.56 µg/mL (≈ 3.75 µM); against Microsporum canis 1 (Microsporum canis, 1) it was 12.5 µg/mL (≈ 30 µM); in the data set with Microsporum canis 2 it was 6.12 µg/mL (≈ 14.7 µM); against Aspergillus fumigatus 2 (Aspergillus fumigatus, 2), 6.25 µg/mL (≈ 15 µM). Moreover, the MIC against Candida albicans 2 (Candida albicans, 2, 24 h) was found to be 1.56 µg/mL (≈ 3.75 µM); against Candida albicans 3 (Candida albicans, 3, 24 h), 1.56 µg/mL (≈ 3.75 µM); in [8], 1.56 µg/mL (≈ 3.75 µM); in the data set on Aspergillus fumigatus 1 (Aspergillus fumigatus, 1) it was 6.25 µg/mL (≈ 15 µM). The “presence / detectability of the compound over time” value in data set [9] is recorded as “may not be detected in significant amounts after the 6 ^th hour”.
